In patent publication US7666817B2, “Cellular libraries of peptide sequences (CLiPS) and methods of using the same” (The Regents of the University of California, priority 2005, dated 2010):

Molecular target: T1, enteropeptidase (catalytic subunit light chain) (Bos taurus, UniProt P98072)
T1 construct: the catalytic subunit light chain of enteropeptidase (EP) (New England Biolabs); purchased New England Biolabs
Experiment: CLiPS whole-cell assay, enteropeptidase cleavage of cell-surface displayed substrates (FACS)
Format: biochemical
Conditions: E. coli displaying reporter-substrate, flow cytometry
Procedure: For screening and clone analysis, overnight cultures were subcultured by dilution into fresh medium (1:50) and grown for 2 hours. The subculture was then induced with 0.04% arabinose and incubated with shaking at room temperature. Cell aliquots were harvested washed with PBS (pH 8.0) and absorbance at 600 nm (OD600) was measured to estimated density. Cells were pelleted by centrifugation, the supernatant removed and the cells resuspended in reaction buffer ([…]). The enzyme was added, and the reaction mixture was incubated at room temperature on rotary shaker (60 rpm). To stop the reaction cells were removed and diluted 100-fold in PBS, pelleted by centrifugation, and resuspended in PBS containing SA-PE (50 nM). After incubation at room temperature (1 hr), cells were washed with PBS and analyzed or sorted using a FACSAria™ cell sorter.
For enteropeptidase cleavage assays, cultures were induced for 2 hr. The reaction buffer for enteropeptidase was 50 mM Tris-Cl pH 8.0 supplemented with 20 mM NaCl and 2 mM CaCl2. […]
(§1) Specifically, for each sample, conversion was determined by flow cytometry analyses using the relationship
[formula] where (FL−) is the fluorescence after incubating without enzyme, (FL+) is fluorescence after incubation with enzyme, and (FL0) is fluorescence of unlabeled cells. For the recombinant FRET protein reactions, conversion was calculated by dividing the ratiometric FRET signal (yellow fluorescence/cyan fluorescence) by the FRET ratio that results from complete cleavage (Felber et al., Biotechniques 36:878-85 (2004)). For synthetic peptide reactions, conversion was calculated by dividing the fluorescence increase by the fluorescence change due to complete hydrolysis. […]
Given the utility of fluorescence-activated cell sorting (FACS) as a quantitative library screening tool, peptidase activity was assayed by displaying reporter-substrates on the surface of Esherichia coli (FIG. 1, panel A). […] In this way, protease activity towards a given substrate would be detectable by monitoring whole-cell fluorescence using FACS. […]

T1 sequence (P98072 801-1035 limits assumed): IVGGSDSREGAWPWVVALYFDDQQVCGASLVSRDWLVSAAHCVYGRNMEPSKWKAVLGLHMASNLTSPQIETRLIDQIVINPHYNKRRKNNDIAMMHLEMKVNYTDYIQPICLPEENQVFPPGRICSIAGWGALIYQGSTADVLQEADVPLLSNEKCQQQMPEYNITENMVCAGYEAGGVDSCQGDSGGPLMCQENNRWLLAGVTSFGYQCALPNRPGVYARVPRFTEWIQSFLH

In the case of “DDDDKGGQS [Canonical, reference compound]”, the “change in mean fluorescence intensity after incubation with enteropeptidase before SAPE labeling” value is reported as “roughly twenty-fold decrease”.
With GGQSGQ the “change in mean fluorescence intensity after incubation with enteropeptidase before SAPE labeling” value was “minimal change in fluorescence”.

Same assay, conditions: cell-surface displayed substrates, time-dependent conversion fit to Michaelis-Menton model

In the case of SSGDRMWGG [EP 4.3], the “second order rate constant (kcat/KM) relative to canonical substrate DDDDK” value is reported as 13 fold.

Test system: enteropeptidase
Experiment: not given
Conditions: reported values (Light et al. 1984; Lu et al. 1999); cited from earlier work

Chain of enteropeptidase (P98072 801-1035 limits assumed): as above

First: DDDDKGGQS [Canonical, reference compound]
Second: tripsinogen: physiological substrate of enteropeptidase
The Km of the first is 35-fold higher: 600 µM for the first, 17 µM for the second.

Test system: tobacco etch virus protease (TEV)
Experiment: Dual-signal CLiPS, TEV cleavage of cell-surface displayed substrates
Format: biochemical
Conditions: TEVopt library clones; 2 hour incubation with 2 units of TEV; Guava EasyCyte plate reading cytometer
Procedure: Construction of a control plasmid (pBSGXP2) expressing a fusion of the streptavidin-binding peptide (WCHPMWEVMCLR) (SEQ ID NO:34) (Rice et. al. 2006) and a GGSGGS (SEQ ID NO:01) sequence flanked by flexible linkers on the amino terminus of circularly permuted outer membrane X (CPX) and a binding peptide of SLP-76 (P2) on the carboxy-terminus was performed using primers 1, 2, and 3 with primers 4 and 5. […] Products were digested with SfiI and ligated to similarly digested pBAD33. A substrate library (pBS5XP2) of the form X5, where X is any amino acid, was constructed using PCR with a synthetic oligonucleotide incorporating NNS codons (primer 9) along with primers 1 and 8 (Table 2). The product was digested with SfiI and ligated into a similarly digested pBAD33 plasmid. Transformation of the plasmid library into electrocompetent MC1061 yielded 6×10^7 colony forming units.
A second substrate library (pBSToptP2) was created using primer 10 with primers 1 and 8. The product was digested with SfiI and ligated into a similarly digested pBAD33 plasmid. Transformation of the plasmid library into electrocompetent MC1061 yielded 5×10^7 colony forming units.
Streptavidin conjugated phycoerythrin (SAPE) was used for labeling streptavidin binding affinity ligand on the N- and C-termini of CPX (FIG. 15). […] Of the three fluorescent proteins AlajGFP-Mona gave a higher fluorescence and was used for all labeling. The resulting CPX scaffold required a 3 hr induction time due to the additional peptide that was fused to the C-terminus. For optimum labeling of cells without protease reaction, the cells were incubated for 1 hr at 22° C. with SAPE (50 nM) and AlajGFPM (250 nM). […] For the described example below 1 hr incubation was used.
(§2) For screening and clone analysis, overnight cultures were subcultured by dilution into fresh medium (1:50) and grown for 2 hrs at 37° C. The subculture was induced with 0.1% arabinose and incubated with shaking at room temperature for 3 hrs. Cell aliquots were washed with PBS (pH 8.0), and optical density at 600 nm (OD600) was measured to estimate cell concentration. Cells (10^8) were pelleted by centrifugation, the supernatant was removed, and the cells were resuspended in reaction buffer (10 μL). Following addition of the enzyme, the reaction mixture was incubated at room temperature on a rotary shaker. Cells were removed and diluted 100-fold in PBS to stop the reaction, pelleted by centrifugation, and resuspended in PBS containing SA-PE (50 nM) and AlajGFP-MONA. After incubation at room temperature (1 hr), cells were washed with PBS and analyzed or sorted using a FACSAria™ cell sorter (Becton, Dickinson and Company).
as §1
(§3) [formula] where (FL−) is the fluorescence after incubating without enzyme, (FL+) is fluorescence after incubation with enzyme, and (FL0) is fluorescence of unlabeled cells. For the recombinant FRET protein reactions, conversion was calculated by dividing the ratiometric FRET signal (yellow fluorescence/cyan fluorescence) by the FRET ratio that results from complete cleavage (Felber et al., Biotechniques 36:878-85 (2004)). For synthetic peptide reactions, conversion was calculated by dividing the fluorescence increase by the fluorescence change due to complete hydrolysis. The reported enteropeptidase KM for the physiological substrate tripsinogen is 17 μM (Light et al., J Biol Chem 259:13195-8 (1984)), but 600 μM for short DDDDK (SEQ ID NO:02) peptides (Lu et al., J Mol Biol 292:361-73 (1999)). Given KM for short peptides is much larger than the substrate concentrations that were used (<5 μM), the Michaelis-Menton model simplifies to
The reaction buffer for TEV assays was 50 mM Tris-Cl pH 8.0 supplemented with 20. mM NaCl and 2 mM CaCl2. […]

Chain of tobacco etch virus protease (TEV) (P04517 2038-2255 limits assumed): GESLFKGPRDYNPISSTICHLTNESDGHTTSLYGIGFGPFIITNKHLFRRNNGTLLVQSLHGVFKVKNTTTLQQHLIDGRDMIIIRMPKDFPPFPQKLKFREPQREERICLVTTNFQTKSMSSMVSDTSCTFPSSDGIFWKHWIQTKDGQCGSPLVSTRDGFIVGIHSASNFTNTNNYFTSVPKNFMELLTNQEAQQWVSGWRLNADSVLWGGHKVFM

Going from ALYIQG [A3] to DLYWQG [C3], the “% Conversion” value falls from 92.212% to 73.3768%.

Compared with DVYVQG [A2], ELYAQG [C5] is higher in “% Conversion” value: 52.6409% for the first, 58.8389% for the second.

Compared with ELYWQG [C4], ENLYFQS [Control, reference compound] is lower in “% Conversion” value: 68.9173% for the first, 66.3577% for the second.

First: EVYVQG [B6]
Second: FLYLQG [A1]
The “% Conversion” value of the first is lower: 61.0145% for the first, 91.8387% for the second.

Compared with LLYIQG [D4], QLYFQS [C6] is higher in “% Conversion” value: 51.6773% for the first, 61.7894% for the second.

Going from SLYVQG [E4] to SLYWQG [D5], the “% Conversion” value falls from 86.3465% to 71.6599%.

Going from VLYLQS [A4] to VLYTQG [E6], the “% Conversion” value falls from 85.4432% to 54.8951%.

For WLYLQG [D1], the “% Conversion” value was 68.0478%.

Same assay, conditions: top TEV substrates from 5X library; 1 hr with 10 units of TEV

Compared with DRELY [F04], EEAVL [H07] is lower in “% Conversion” value: 79% for the first, 71% for the second.

Going from EEELY [B02] to GEDLL [F09], the “% Conversion” value falls from 72% to 71%.

First: LEQLI [B09]
Second: PEVIY [C10]
The “% Conversion” value of the first is lower: 76% for the first, 81% for the second.

First: WEPLW [H08]
Second: WESLY [E11]
The “% Conversion” value of the first is lower: 73% for the first, 77% for the second.

Molecular target: T2, enteropeptidase (Bos taurus, UniProt P98072)
T2 construct: the catalytic subunit light chain of enteropeptidase (EP) (New England Biolabs); purchased New England Biolabs
Experiment: Enteropeptidase cleavage of soluble CyPet-YPet FRET fusion protein substrates (fluorimetry)
Format: biochemical
Conditions: CyPet-YPet fusion protein substrate ~0.5 μM, 0.29 nM enteropeptidase
Excerpt: Substrates EP2.1, EP4.1, EP4.2, and EP4.3 identified for enteropeptidase by CLiPS were amplified with YPet using reverse primer 7 with forward primers 8, 9, 10, and 11, respectively (Table1). The canonical EP substrate was amplified as a fusion to YPet using primers 7 and 12 (Table 1). As a negative control, a GSGSGS (SEQ ID NO:18) linker was substituted for the six amino acid substrate sequence using primers 7 and 13 (Table 1). These products were digested with kpnI and sphI and ligated to similarly digested plasmid containing CyPET to yielded plasmids pBC21Y, pBC41Y, pBC42Y, pBC43Y pBCEPY and pBCGSY.
Overnight cultures of MC1061 transformed with the FRET substrate encoding expression vectors described above were subcultured 1:50 and grown for 2 hrs. […] Reactions were performed in 100 μL of enteropeptidase reaction buffer with ˜0.5 μM fusion protein, as determined using the extinction coefficient of YPet at 514 nm (Nguyen et al., Nat Biotechnol 23:355-60 (2005)) and Beer's law. Enteropeptidase was added to each reaction to a final concentration of 0.29 nM and fluorescence emission at 475 nm (cyan) and 527 nm (yellow) was monitored upon excitation at 433 nm using a Safire fluorimeter (Tecan).
[formula] where (FL−) is the fluorescence after incubating without enzyme, (FL+) is fluorescence after incubation with enzyme, and (FL0) is fluorescence of unlabeled cells. […]

T2 sequence (P98072 801-1035 limits assumed): as the sequence (P98072 801-1035 limits assumed) above

For SSGDRMWGG [EP 4.3], the “cleavage rate relative to DDDDK” value was 17 fold.

Molecular target: T3, MMP-1 (Homo sapiens, UniProt P03956)
T3 sequence (P03956 100-469): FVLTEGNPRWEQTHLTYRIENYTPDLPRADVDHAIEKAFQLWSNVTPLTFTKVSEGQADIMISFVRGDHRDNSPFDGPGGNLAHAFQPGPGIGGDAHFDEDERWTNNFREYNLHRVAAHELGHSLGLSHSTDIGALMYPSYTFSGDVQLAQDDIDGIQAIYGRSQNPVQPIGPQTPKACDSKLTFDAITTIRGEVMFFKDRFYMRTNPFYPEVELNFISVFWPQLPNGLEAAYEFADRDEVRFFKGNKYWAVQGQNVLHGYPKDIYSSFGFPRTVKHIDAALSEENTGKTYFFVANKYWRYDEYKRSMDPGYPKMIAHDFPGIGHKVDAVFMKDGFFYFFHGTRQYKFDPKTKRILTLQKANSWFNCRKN
Experiment: Dual-signal CLiPS, MMP-1 cleavage of cell-surface displayed substrates
Format: biochemical
Conditions: MMP substrates from sort 4 of 5X library; cells incubated with 1.5 pM MMP-1
Procedure: as §2, §1, §3
The MMP-1 assays were performed by incubating cells with 1.5 pM MMP-1. Sorts for hydrolysis were performed after 16 hrs, 19 hrs, and 16 hrs for sorts 1, 3 and 5, respectively (FIGS. 9 and 10). Enrichment after 4 sorts can be seen by the fluorescence shift due to MMP-1 incubation (FIG. 10) and this population was sorted a final time for hydrolyzed substrates. These clones were sequences and assayed for conversion (Table 8). […] Many of these sequences have been reported as MMP-1 substrates. However, substrates of MMP-1 with amino acids M and L at positions P1 and P3 have not previously been reported.

Going from MPLVM to MPVVL, the % Conversion falls from 65.9% to 42.8%.

Compared with PMAVI, PMAVT is lower in % Conversion: 69.9% for the first, 50.4% for the second.

Compared with PVAMR, PVNVV is higher in % Conversion: 72.9% for the first, 78.9% for the second.

Compared with PVPMV, TPLAL is lower in % Conversion: 49.6% for the first, 41.7% for the second.

First: VPVNM
Second: VPVVM
The % Conversion of the first is higher: 76% for the first, 36.6% for the second.
